The text below walks through data of ChEMBL document CHEMBL5055668 (J Med Chem, 2021).

The subject of experiment [1] is MC-38. The experiment is described as follows: Induction of conversion of M2-macrophages to the M1 phenotype in CM of MC38 cells treated C57BL/6 mouse BMDM cells transfected with CSF1R shRNA2 assessed as decrease in Nos2 mRNA expression measured after 24 hrs by qPCR analysis. The class given is functional, cell-based.
Experiment [2] has as its system THP-1. The experiment is described as follows: Induction of conversion of M2-macrophages to the M1 phenotype in CM of HCT116 cells treated […]-differentiated human THP-1 cells assessed as upregulation of Il12 mRNA expression at 30 to 100 nM incubated for 24 hrs by qPCR analysis. Format: functional, cell-based. As to conditions: dose 30-100 nM.
In experiment [3] the test system is MC-38. The experiment is described as follows: Antitumor activity against mouse MC38 cells allografted in C57BL6 mouse assessed as decrease in Il10 mRNA expression at 10 to 20 mg/kg, po administered daily for 2 weeks by qPCR analysis. Format: functional, organism-based. As to conditions: dose 10-20 mg/kg.
The subject of experiment [4] is MC-38. The experiment is described as follows: Antitumor activity against mouse MC38 cells allografted in C57BL6 mouse assessed as increase in Tnf mRNA expression at 10 to 20 mg/kg, po administered daily for 2 weeks by qPCR analysis. Format: functional, organism-based. As to conditions: dose 10-20 mg/kg.
Experiment [5] relates to MC-38. The experiment can be described thus: Antiproliferative activity against mouse MC38 cells assessed as reduction in cell viability at 10 to 100 nM incubated for 24 hrs by CCK-8 assay. Format: functional, cell-based. As to conditions: dose 10-100 nM.
The subject of experiment [6] is BMDM. The experiment is described as follows: Induction of conversion of M2-macrophages to the M1 phenotype in CM of MC38 cells treated C57BL/6 mouse BMDM cells assessed as upregulation of […] mRNA expression at 30 to 100 nM preincubated with culture medium of MC38 cells for 24 hrs followed by compound addition and measured after 24 hrs by qPCR analysis. The class given is functional, cell-based. To be noted: dose 30-100 nM.

The target of experiment [7] is T1, Macrophage colony-stimulating factor 1 receptor (Mus musculus) (UniProt P09581).
T1 sequence (whole entry): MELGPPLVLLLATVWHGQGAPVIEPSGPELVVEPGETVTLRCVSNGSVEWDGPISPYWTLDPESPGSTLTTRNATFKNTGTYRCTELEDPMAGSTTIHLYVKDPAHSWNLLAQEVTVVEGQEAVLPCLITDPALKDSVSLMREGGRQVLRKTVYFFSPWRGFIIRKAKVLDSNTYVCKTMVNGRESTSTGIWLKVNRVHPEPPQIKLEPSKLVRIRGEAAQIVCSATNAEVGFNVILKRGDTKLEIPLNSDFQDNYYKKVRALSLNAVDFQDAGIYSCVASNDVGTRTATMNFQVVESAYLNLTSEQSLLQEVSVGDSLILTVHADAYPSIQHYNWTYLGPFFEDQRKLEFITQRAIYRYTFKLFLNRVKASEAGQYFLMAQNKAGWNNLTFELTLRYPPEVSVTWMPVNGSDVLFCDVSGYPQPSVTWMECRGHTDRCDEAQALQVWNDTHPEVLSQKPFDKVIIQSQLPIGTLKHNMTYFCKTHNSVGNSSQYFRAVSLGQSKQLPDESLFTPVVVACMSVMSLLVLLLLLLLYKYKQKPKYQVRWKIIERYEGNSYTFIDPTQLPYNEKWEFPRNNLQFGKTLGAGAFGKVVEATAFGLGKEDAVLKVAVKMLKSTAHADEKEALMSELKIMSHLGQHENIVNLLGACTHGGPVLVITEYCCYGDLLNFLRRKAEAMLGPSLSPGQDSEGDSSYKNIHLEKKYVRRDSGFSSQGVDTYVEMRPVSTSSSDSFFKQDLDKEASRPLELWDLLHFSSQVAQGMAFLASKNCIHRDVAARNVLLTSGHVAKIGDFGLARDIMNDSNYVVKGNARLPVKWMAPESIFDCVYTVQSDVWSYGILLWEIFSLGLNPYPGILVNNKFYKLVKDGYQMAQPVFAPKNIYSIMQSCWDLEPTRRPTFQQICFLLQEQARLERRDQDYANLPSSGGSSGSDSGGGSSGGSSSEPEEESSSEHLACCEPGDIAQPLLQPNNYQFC
The experiment is described as follows: Inhibition of CSF-1R signaling pathway in C57BL/6 mouse BMDM cells assessed as reduction in M-CSF induced CSF-1R phosphorylation at 100 nM preincubated for 12 hrs followed by M-CSF stimulation for 30 mins by Western blot analysis. Format: cell-based.

The target in experiment [8] is T1, Macrophage colony-stimulating factor 1 receptor (Mus musculus). The experiment can be described thus: Inhibition of CSF-1R signaling pathway in C57BL/6 mouse BMDM cells assessed as reduction in M-CSF induced CSF-1R phosphorylation preincubated for 12 hrs followed by M-CSF stimulation for 30 mins by Western blot analysis. Format: cell-based. As to conditions: dose 100.0 nM.

Experiment [9] relates to THP-1. The experiment can be described thus: Induction of conversion of M2-macrophages to the M1 phenotype in CM of HCT116 cells treated […]-differentiated human THP-1 cells assessed as upregulation of Nos2 mRNA expression at 30 to 100 nM incubated for 24 hrs by qPCR analysis. Format: functional, cell-based. As to conditions: dose 30-100 nM.
The test system of experiment [10] is MC-38. The experiment is described as follows: Antiproliferative activity against mouse MC38 cells cultured with culture medium of M2-macrophages assessed as reduction in cell viability at 10 to 100 nM incubated for 24 hrs by CCK-8 assay. The class given is functional, cell-based. As to conditions: dose 10-100 nM.
The subject of experiment [11] is BMDM. The experiment is described as follows: Induction of conversion of M2-macrophages to the M1 phenotype in CM of MC38 cells treated C57BL/6 mouse BMDM cells assessed as down regulation of Retnla mRNA expression at 30 to 100 nM preincubated with culture medium of MC38 cells for 24 hrs followed by compound addition and measured after 24 hrs by qPCR analysis. The class given is functional, cell-based. As to conditions: dose 30-100 nM.

Experiment [12] relates to MC-38. The experiment can be described thus: Antitumor activity against mouse MC38 cells allografted in C57BL6 mouse assessed as decrease in Arg1 mRNA expression at 10 to 20 mg/kg, po administered daily for 2 weeks by qPCR analysis. Format: functional, organism-based. To be noted: dose 10-20 mg/kg.
Experiment [13] deals with BMDM. The experiment can be described thus: Induction of conversion of M2-macrophages to the M1 phenotype in CM of MC38 cells treated C57BL/6 mouse BMDM cells assessed as down regulation of Il10 mRNA expression at 30 to 100 nM preincubated with culture medium of MC38 cells for 24 hrs followed by compound addition and measured after 24 hrs by qPCR analysis. The class given is functional, cell-based. To be noted: dose 30-100 nM.

For experiment [14], the system named is THP-1. The experiment can be described thus: Induction of conversion of M2-macrophages to the M1 phenotype in CM of HCT116 cells treated […]-differentiated human THP-1 cells assessed as down regulation of Chil3 mRNA expression at 30 to 100 nM incubated for 24 hrs by qPCR analysis. The class given is functional, cell-based. To be noted: dose 30-100 nM.

Structures are written as SMILES. The source made the active and inactive calls. The calls are words filed in the database; no cut-off is given here.

Turning to `Cc1[nH]c(/C=C2\C(=O)Nc3cc(NC(=O)Nc4cc(C(C)(C)C)on4)ccc32)c(C)c1NC(=O)CN1CCN(C)CC1`, the result with MC-38 [1], with THP-1 [2], in the experiment with MC-38 [3], in the experiment with MC-38 [4], with BMDM [6] and with THP-1 [9] was Active. Besides, the outcome in the experiment on MC-38 [10], in the experiment on BMDM [11], with MC-38 [12], with BMDM [13] and in the experiment with THP-1 [14] was Active. The result in the experiment with MC-38 [5] was inactive. Also, in [7], the inhibition result was “Active”. For the same compound, the inhibition result in experiment [8] was “Dose-dependent effect”.
